Experimental data published in patent publication US11318090B1, “In situ gelling composition as a pH-selective and mucoadhesive sustained release drug delivery system” (King Abdulaziz University, priority 2021, dated 2022).

Assay: pH-profile drug release in dialysis bag, consecutive simulated gastrointestinal media
Assay type: physicochemical
Procedure: Rv (Sigma-Aldrich, USA) stock solution of 15 μg/mL was prepared in distilled water. Using UV spectrophotometric analysis (Shimadzu-UV-Vis Spectrophotometers, Japan), the analysis was conducted at a wavelength of 306 nm in a 1 cm cell compared to a blank solution of distilled water. To construct a calibration curve, dilutions had been prepared (FIG. 1). The ? -max selection was based on the UV-scanning from 200-400 nm of pure Rv solution. The formulations' drug-content assays for drug encapsulation efficiency were accomplished by dissolving the formulation in ethanol and centrifuging it for 30 minutes at 1500 rpm. After that, an accurate volume of the supernatant transparent layer had been measured for UV-absorbance at 306 nm for Rv content. This ? -max was unique for Rv only (Zhang Lingtuo et al. 2019).
The formulations in Table 1 containing 500 mg of the Rv were each encountered in the dialysis bag (14000 Daltons cut off, Sigma-Aldrich, USA). The dry weights of the formulations were reconstituted with distilled water before enclosing them inside the dialysis bag. The release media volume was 300 mL. The drug-release experiment was designed to simulate the gastrointestinal-pH and transit time after oral ingestion. As a result, the dialysis membranes' surrounding media simulated gastric media (0.1N HCl-pH 1.2), proximal intestine simulated media (phosphate buffer-pH 6.5), the distal area of the small intestine (phosphate buffer-pH 6.8), and phosphate buffer media-pH 7.4 of descending colon simulated media, consecutively. The transit time for each simulated media was two hrs (Amidon et al. 2015; Maurer et al. 2015; Bani-Jaber and Abdullah 2020). The dialysis membranes were subjected to 37±0.5° C. in a water bath shaker of 75 rpm speed. Total release media replacement was made after each hour of dissolution to simulate body sink conditions. This experiment was conducted to optimize the formulation depending on SR behavior and drug encapsulation efficiency. The optimum formula was subjected to aging, gel swelling studies, nanoparticle, and formulation's physiochemical characterizations.

In the case of 3,5,4-trihydroxytrans-stilbene [Rv], the “Gastric % Release” value (0.1N HCl pH 1.2, 2 hrs, 37°C, 500 mg Rv, freshly prepared) is reported as 16.83%, the “average total pH-profile release after 8 hrs” value (pH 1.2, 6.5, 6.8, 7.4, 2 hrs each) is reported as 50.89% and the “Intestinal-Colonic % Release” value (pH 6.5, 6.8 and 7.4 media together (6 hrs), freshly prepared) is reported as 34.06%. The “Proximal Intestine % Release” value (phosphate buffer pH 6.5, 2 hrs, freshly prepared) was 11.49%, the “Distal Intestine % Release” value (phosphate buffer pH 6.8, 2 hrs, freshly prepared) was 12.74% and the “Colon % Release” value (phosphate buffer pH 7.4, 2 hrs, freshly prepared) was 9.83%.
